{
  "source": "paper PMC7421780",
  "about": "(Future Medicinal Chemistry, 2020)",
  "key": {"[1]": {"biological_target": "CYP2C9 (Homo sapiens, UniProt P11712)", "sequence (P11712 whole entry)": "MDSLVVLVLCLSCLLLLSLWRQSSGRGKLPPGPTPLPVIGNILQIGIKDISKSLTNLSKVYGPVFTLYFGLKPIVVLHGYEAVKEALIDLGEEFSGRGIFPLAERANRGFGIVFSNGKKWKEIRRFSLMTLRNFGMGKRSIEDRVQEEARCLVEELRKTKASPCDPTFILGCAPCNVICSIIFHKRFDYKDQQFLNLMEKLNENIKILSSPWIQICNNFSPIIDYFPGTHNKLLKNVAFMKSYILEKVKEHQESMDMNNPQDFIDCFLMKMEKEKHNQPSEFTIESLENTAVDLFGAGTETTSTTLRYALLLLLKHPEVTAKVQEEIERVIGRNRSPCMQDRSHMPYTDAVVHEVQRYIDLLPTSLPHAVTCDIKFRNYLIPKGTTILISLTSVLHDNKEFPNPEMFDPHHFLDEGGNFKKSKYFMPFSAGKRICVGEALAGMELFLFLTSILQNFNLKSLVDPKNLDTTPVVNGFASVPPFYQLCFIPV", "assay": "Cytochrome P450 inhibition", "format": "in vitro ADME"}, "[2]": {"assay": "in vitro", "conditions": "human"}, "[3]": {"biological_target": "CYP2D6 (Homo sapiens, UniProt P10635)", "sequence (P10635 whole entry)": "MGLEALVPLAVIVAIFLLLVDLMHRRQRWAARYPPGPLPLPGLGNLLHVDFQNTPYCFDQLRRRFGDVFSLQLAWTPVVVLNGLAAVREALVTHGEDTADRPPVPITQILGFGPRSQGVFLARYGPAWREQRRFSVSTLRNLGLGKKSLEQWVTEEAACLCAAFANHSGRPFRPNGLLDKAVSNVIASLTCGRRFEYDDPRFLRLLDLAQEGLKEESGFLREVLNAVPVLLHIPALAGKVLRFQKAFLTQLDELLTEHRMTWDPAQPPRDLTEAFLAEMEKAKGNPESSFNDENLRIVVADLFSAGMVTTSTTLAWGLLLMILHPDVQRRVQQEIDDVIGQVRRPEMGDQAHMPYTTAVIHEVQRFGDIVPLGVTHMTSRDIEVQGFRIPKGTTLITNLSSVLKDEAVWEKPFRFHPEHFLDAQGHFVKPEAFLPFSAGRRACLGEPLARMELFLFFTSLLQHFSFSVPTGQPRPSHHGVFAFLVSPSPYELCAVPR", "assay": "biochemical"}, "[4]": {"conditions": "Human plasma, equilibrium dialysis"}, "[5]": {"system": "Mtb H37Rv", "assay": "Secondary assay: MIC, IC50 and IC90 repeated at lower starting concentrations", "format": "cell-based", "conditions": "Mycobacterium tuberculosis"}, "[6]": {"system": "intracellular Mtb H37Rv", "assay": "microbe, parasite or virus in culture", "format": "cell-based", "conditions": "Mycobacterium tuberculosis"}, "[7]": {"assay": "In vitro microsomal stability assay", "conditions": "human, microsomes"}, "[8]": {"assay": "Caco-2 cell monolayer permeability assay", "conditions": "human, Caco-2"}, "[9]": {"assay": "HepG2 cytotoxicity", "format": "cell-based", "conditions": "human, HepG2 cells"}, "[10]": {"system": "Mtb H37Rv", "assay": "Primary screen: MIC, IC50 and IC90 under aerobic conditions", "format": "cell-based", "conditions": "Mycobacterium tuberculosis"}, "[11]": {"system": "Mtb H37Rv", "assay": "Minimal bactericidal concentration", "format": "cell-based, Mycobacterium tuberculosis", "conditions": "Mtb H37Rv aerobic"}, "[12]": {"biological_target": "CYP3A4 (Homo sapiens, UniProt P08684)", "sequence (P08684 whole entry)": "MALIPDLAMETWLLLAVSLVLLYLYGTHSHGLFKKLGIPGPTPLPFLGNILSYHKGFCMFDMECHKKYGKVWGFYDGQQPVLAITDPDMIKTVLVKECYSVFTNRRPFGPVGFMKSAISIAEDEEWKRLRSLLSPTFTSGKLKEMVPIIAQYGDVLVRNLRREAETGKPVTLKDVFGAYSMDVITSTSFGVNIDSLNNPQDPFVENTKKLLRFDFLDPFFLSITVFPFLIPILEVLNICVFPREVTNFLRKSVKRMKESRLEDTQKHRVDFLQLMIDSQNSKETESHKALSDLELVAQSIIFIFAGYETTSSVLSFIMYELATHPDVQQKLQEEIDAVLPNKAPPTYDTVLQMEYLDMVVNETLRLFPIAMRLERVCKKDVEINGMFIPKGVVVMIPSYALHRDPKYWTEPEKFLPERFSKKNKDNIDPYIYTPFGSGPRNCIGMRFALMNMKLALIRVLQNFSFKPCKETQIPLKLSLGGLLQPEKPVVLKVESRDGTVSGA", "assay": "Cytochrome P450 inhibition", "format": "in vitro ADME"}, "[13]": {"biological_target": "CYP2C19 (Homo sapiens, UniProt P33261)", "sequence (P33261 whole entry)": "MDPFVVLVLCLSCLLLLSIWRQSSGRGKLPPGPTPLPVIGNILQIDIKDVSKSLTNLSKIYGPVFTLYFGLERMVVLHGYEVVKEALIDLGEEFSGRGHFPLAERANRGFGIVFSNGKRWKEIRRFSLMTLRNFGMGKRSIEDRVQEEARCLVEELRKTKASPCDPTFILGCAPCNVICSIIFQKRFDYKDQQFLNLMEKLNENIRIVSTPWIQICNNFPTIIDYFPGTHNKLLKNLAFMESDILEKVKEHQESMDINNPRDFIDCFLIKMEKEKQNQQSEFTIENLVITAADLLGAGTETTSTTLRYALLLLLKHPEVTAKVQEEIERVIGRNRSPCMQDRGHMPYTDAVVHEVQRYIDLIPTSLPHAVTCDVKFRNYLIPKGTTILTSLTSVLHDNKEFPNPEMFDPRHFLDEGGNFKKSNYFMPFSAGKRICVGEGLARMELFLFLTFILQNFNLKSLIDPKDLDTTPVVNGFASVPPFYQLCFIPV", "assay": "biochemical"}, "[14]": {"biological_target": "T1, CYP2C8 (Homo sapiens, UniProt P10632)", "T1 sequence (P10632 1-490)": "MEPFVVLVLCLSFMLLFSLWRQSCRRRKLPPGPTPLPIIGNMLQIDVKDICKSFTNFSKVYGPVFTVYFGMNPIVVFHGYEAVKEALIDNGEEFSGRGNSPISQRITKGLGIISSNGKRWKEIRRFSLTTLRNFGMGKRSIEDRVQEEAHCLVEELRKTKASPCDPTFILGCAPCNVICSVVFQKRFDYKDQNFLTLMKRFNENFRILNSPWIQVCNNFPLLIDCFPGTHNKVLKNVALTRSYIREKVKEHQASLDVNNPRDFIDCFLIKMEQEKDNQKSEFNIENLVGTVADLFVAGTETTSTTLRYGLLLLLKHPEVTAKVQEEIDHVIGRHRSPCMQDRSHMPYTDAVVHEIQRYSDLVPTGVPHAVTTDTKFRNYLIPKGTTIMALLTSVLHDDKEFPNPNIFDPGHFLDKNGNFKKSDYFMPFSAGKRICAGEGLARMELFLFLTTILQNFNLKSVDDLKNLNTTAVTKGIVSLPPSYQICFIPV", "assay": "biochemical"}, "[15]": {"system": "Mycobacterium abscessus", "assay": "MIC, IC50, IC90 against nontuberculous mycobacteria", "format": "cell-based"}, "[16]": {"system": "Mycobacterium avium", "assay": "MIC against nontuberculous mycobacteria, Alamar blue", "format": "cell-based"}, "[17]": {"assay": "in vitro", "conditions": "human", "remark": "listed apart in the source"}, "[18]": {"biological_target": "T2, CYP2B6 (Homo sapiens, UniProt P20813)", "T2 sequence (P20813 1-491)": "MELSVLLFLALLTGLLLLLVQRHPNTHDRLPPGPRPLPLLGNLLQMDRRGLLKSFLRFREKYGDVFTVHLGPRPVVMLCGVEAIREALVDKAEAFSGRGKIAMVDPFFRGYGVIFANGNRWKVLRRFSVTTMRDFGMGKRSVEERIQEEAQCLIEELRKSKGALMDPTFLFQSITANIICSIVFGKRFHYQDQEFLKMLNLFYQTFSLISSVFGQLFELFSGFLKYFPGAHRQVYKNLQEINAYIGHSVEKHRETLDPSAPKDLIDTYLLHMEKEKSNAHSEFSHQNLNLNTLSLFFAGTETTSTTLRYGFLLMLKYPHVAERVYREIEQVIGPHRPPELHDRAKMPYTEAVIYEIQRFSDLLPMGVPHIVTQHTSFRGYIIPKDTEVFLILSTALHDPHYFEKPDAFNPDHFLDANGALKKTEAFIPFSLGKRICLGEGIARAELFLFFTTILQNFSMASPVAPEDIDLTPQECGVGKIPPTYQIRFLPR", "assay": "biochemical"}, "[19]": {"system": "NRP Mtb H37Rv", "assay": "microbe, parasite or virus in culture", "format": "cell-based", "conditions": "Mycobacterium tuberculosis"}},
  "note": "Read-outs that look alike come from different tables or passages of the source.",
  "data": [
    {"smiles": "O=C(C[n+]1cn(Cc2cccc(Cn3c[n+](CC(=O)c4ccc([N+](=O)[O-])cc4)c4ccccc43)n2)c2ccccc21)c1ccc([N+](=O)[O-])cc1.[Br-].[Br-]", "note": "[Compound 6f, 1,1′-(pyridine-2,6-diylbis(methylene))bis(3-(2-(4-nitrophenyl)-2-oxoethyl)-1H-benzo[d]imidazol-3-ium) bromide]", "values": [
      {"measurement": "IC50", "setting": "[1]", "result": "> 20", "unit": "µM"},
      {"measurement": "recovery", "setting": "[2]", "result": 24.5, "unit": "%"},
      {"measurement": "fraction unbound", "setting": "[2]; plasma", "result": 0.078},
      {"measurement": "IC50", "setting": "[3]", "result": 0.92, "unit": "µM"},
      {"measurement": "Mean plasma fraction unbound", "setting": "[4]", "result": 7.8, "unit": "%"},
      {"measurement": "IC50", "setting": "[5]", "result": 11, "unit": "µM"},
      {"measurement": "IC90", "setting": "[5]", "result": 20, "unit": "µM"},
      {"measurement": "MIC", "setting": "[5]; read-out: MIC aerobic condition", "result": 16, "unit": "µM"},
      {"measurement": "IC50", "setting": "[6]; THP-1, read-out: IC50 intracell", "result": 14, "unit": "µM"},
      {"measurement": "IC90", "setting": "[6]; THP-1, read-out: IC90 intracell", "result": 26, "unit": "µM"},
      {"measurement": "half-life at 1 μM", "setting": "[7]; NADPH-dependent T1/2, Human", "result": 1.77, "unit": "h"},
      {"measurement": "microsomal CLint at 1 μM", "setting": "[7]; NADPH-free CLint", "result": "< 12.8", "unit": "µL/min/mg"},
      {"measurement": "half-life at 1 μM", "setting": "[7]; NADPH-free T1/2, Human", "result": "> 3", "unit": "h"},
      {"measurement": "Papp B→A", "setting": "[8]", "result": 0.095, "unit": "×10⁻⁶ cm/s"},
      {"measurement": "efflux ratio", "setting": "[8]", "result": 0.2},
      {"measurement": "IC50 at 72 h", "setting": "[9]", "result": "> 100", "unit": "µM"},
      {"measurement": "IC50", "setting": "[10]", "result": 14, "unit": "µM"},
      {"measurement": "IC90", "setting": "[10]", "result": 21, "unit": "µM"},
      {"measurement": "MIC", "setting": "[10]", "result": 24, "unit": "µM"},
      {"measurement": "mechanism of action (bacteriostatic or bactericidal)", "setting": "[11]", "result": "bactericidal"},
      {"measurement": "IC50", "setting": "[12]", "result": 6.6, "unit": "µM"},
      {"measurement": "IC50", "setting": "[12]; IC50 CYP3A4 – midazolam, probe substrate midazolam, human liver microsomes", "result": "> 20", "unit": "µM"},
      {"measurement": "IC50", "setting": "[13]", "result": 8.8, "unit": "µM"},
      {"measurement": "IC50", "setting": "[14]", "result": "> 20", "unit": "µM"},
      {"measurement": "activity against M. abscessus (in words)", "setting": "[15]", "result": "showed activity"},
      {"measurement": "IC50", "setting": "[15]; Mycobacteroides abscessus", "result": 56, "unit": "µM"},
      {"measurement": "IC90", "setting": "[15]; Mycobacteroides abscessus", "result": 68, "unit": "µM"},
      {"measurement": "MIC", "setting": "[15]; Mycobacteroides abscessus", "result": 88, "unit": "µM"},
      {"measurement": "activity against M. avium (in words)", "setting": "[16]", "result": "moderate activity"},
      {"measurement": "MIC", "setting": "[16]; Mycobacterium avium", "result": 200, "unit": "µM"},
      {"measurement": "IC50", "setting": "[17]", "result": "> 50", "unit": "µM"},
      {"measurement": "IC50", "setting": "[18]", "result": "> 20", "unit": "µM"},
      {"measurement": "IC50", "setting": "[19]; Low oxygen", "result": 9.7, "unit": "µM"},
      {"measurement": "IC90", "setting": "[19]; Low oxygen", "result": 33, "unit": "µM"},
      {"measurement": "MIC", "setting": "[19]; Low oxygen", "result": 120, "unit": "µM"},
      {"measurement": "IC50", "setting": "[19]; Normal oxygen", "result": 9.9, "unit": "µM"},
      {"measurement": "IC90", "setting": "[19]; Normal oxygen", "result": 25, "unit": "µM"},
      {"measurement": "MIC", "setting": "[19]; Normal oxygen", "result": 71, "unit": "µM"}
    ]}
  ]
}
